{"source": "patent EP4740950A1", "about": "“PROPHYLACTIC OR AMELIORATING AGENT FOR CACHEXIA” (The University of Osaka, priority 2023, dated 2025)", "key": {"[1]": {"tested_on": "IL-6", "assay": "IL-6 levels in culture supernatant of colon cancer cells (Colon26) treated with PC or PS (ELISA)", "type": "cell-based, mouse", "conditions": "16:0 PC or 18:0 PC 25 µM, PS 100 µg/ml, 24 hours; then 48 hours in serum-free RPMI", "protocol": "Colon26 cells were seeded at a concentration of 5 × 10^4 cells/cm^2 in the medium used in Example 1 in a culture dish with a diameter of 10 mm, and cultured at 37°C, 5% CO2 to 80% to 90% confluency. To the culture dish, 16:0 PC or 18:0 PC was added at a final concentration of 25 µM, and PS (Larodan) was added at a final concentration of 100 µg/ml. The cells were cultured for 24 hours. After the cells were washed with PBS, the medium was changed to serum-free RPMI medium (Wako), and the cells were cultured for another 48 hours. The medium was collected and centrifuged at 4°C and 3000 rpm for 20 minutes to precipitate the cellular components. The supernatant was filtered through a 0.22 µm sterile filter to remove precipitates from the supernatant. The […] IL-6 level in the supernatant was measured using LEGEND MAX Mouse IL-6 ELISA Kit (BioLegend)."}, "[2]": {"tested_on": "myoblasts (C2C12)", "assay": "in vitro differentiation induction of myoblasts (C2C12) into skeletal muscle cells in medium containing Colon26 culture supernatant (myotube formation)", "type": "cell-based, Mouse", "conditions": "Colon26 cells treated at 25 µM for 24 hours; 50% supernatant in horse serum-supplemented DMEM; C2C12 observed on day 9, phase-contrast microscope", "protocol": "Mouse myoblasts (C2C12, RIKEN cell bank) and mouse colon cancer cells (Colon26, RIKEN cell bank) were used. The culture medium used was DMEM medium (Sigma-Aldrich Japan) or RPMI medium (Sigma-Aldrich Japan) supplemented with 10% fetal bovine serum (Gibco), 100 units/mL penicillin G (Sigma-Aldrich Japan) and 100 µg/mL streptomycin (Sigma-Aldrich Japan).\n(§1) Colon26 cells were seeded at a concentration of 5 × 10^4 cells/cm^2 in a culture dish with a diameter of 10 mm, and cultured at 37°C, 5% CO2 to 80% to 90% confluency. The medium was then changed to a medium supplemented with 16:0 lysophosphatidylcholine (hereinafter referred to as LPC), 18:0 LPC, 16:0 phosphatidylcholine (hereinafter referred to as PC), or 18:0 PC (all manufactured by Avanti Polar Lipids) at a final concentration of 25 µM, or a medium not containing LPC or PC. The cells were cultured for another 24 hours. After the cells were washed with PBS, the medium was changed to serum-free RPMI medium, and the cells were cultured for another 48 hours. The medium was collected and centrifuged at 4°C and 3000 rpm for 20 minutes to precipitate the cellular components. The supernatant was sterile-filtered using a 0.22 µm sterile filter (Merck Millipore) and stored at -80°C until use.\nC2C12 cells were cultured to 80% to 90% confluency in a 6-well culture plate. The medium was changed to DMEM medium supplemented with horse serum (Gibco, final concentration: 2%) or horse serum-supplemented DMEM medium containing 50% supernatant of one of the five types prepared in the above (2), and the cells were cultured for 9 days to induce differentiation into skeletal muscle cells. On day 9, the morphology of the cells was observed under a phase-contrast microscope."}, "[3]": {"tested_on": "tumor-bearing mice (Colon26)", "assay": "survival rate of Colon26 tumor-bearing mice, intravenous PC", "type": "in vivo", "conditions": "3 mg/kg via the tail vein every 3 or 4 days; compared with solvent (PBS) group", "protocol": "(§2) Mice were transplanted with Colon26 cells in the same manner as in Example 3, and one week later, divided into three groups: a non-cancer cell transplantation group (control), a cancer cell transplantation group with administration of a solvent (PBS, n = 20), and a cancer cell transplantation group with administration of PC (PC, n = 20). PC and a solvent (PBS) were administered by the same dosing schedule as that in Example 3. During the dosing period, the general conditions of the mice were observed every day. The survival rate was calculated by counting the number of dead individuals. The surviving mice were euthanized on day 36 post-transplantation of Colon26 cells, and the epididymal fat tissue was harvested to measure the weight (groups of n = 8 each). Total RNA was recovered from less than 100 mg of the epididymal fat tissue, and cDNA was synthesized and subjected to qPCR in the same manner as in Example 3 (groups of n = 2 each). The reagents and devices were the same as those used in Example 3. The primer set shown below was used to detect the Leptin gene, which is known to have the function of maintaining fat tissue. The primer set for amplification of the mouse GAPDH gene was the same as that used in Example 3."}, "[4]": {"tested_on": "Atrogin-1 gene", "assay": "quantitative PCR of Atrogin-1 gene in muscle of Colon26 tumor-bearing mice, intravenous PC", "type": "in vivo, mouse", "conditions": "3 mg/kg via the tail vein every 3 or 4 days, day 36 post-transplantation", "protocol": "(§3) Male BalB/c mice (SLC) at 8 to 9 weeks old were used. Colon26 cells were cultured to 80% to 90% confluency in the same manner as in Example 1 and suspended in PBS to a concentration of 1 × 10^6 cells/mL. Then, 100 µL of the cell suspension was subcutaneously transplanted into the right upper flank of the mice. Every 3 or 4 days, the body weight of the mice was measured, and the general conditions of the mice were observed. The tumor size [1/2(a × b^2) mm^3] was calculated by measuring the maximum diameter (a) and the minimum diameter (b) of the tumor.\n(§4) Hydrogenated PC (HSPC; Avanti Polar Lipids) was dissolved in ethanol to a concentration of 50 mM and stored at -20°C until use.\n(§5) We set up three groups of mice: a non-cancer cell transplantation group (control), a cancer cell transplantation group with administration of a solvent (PBS), and a cancer cell transplantation group with administration of PC (PC). […]\n(§6) The mice were euthanized on day 36 post-transplantation of Colon26 cells, and the gastrocnemius and tibialis muscles were harvested to measure the weight. Twenty milligrams of each muscle tissue was homogenized using High Power Homogenizer ASG50 (AS ONE Corporation), and the total RNA was recovered using RNeasy Fibrous Mini Kit (Qiagen). cDNA was synthesized from the total RNA using PrimeScript RT reagent Kit (Takara) and subjected to quantitative PCR (qPCR). […]"}, "[5]": {"tested_on": "Leptin gene", "assay": "quantitative PCR of Leptin gene in epididymal fat tissue of Colon26 tumor-bearing mice, intravenous PC", "type": "in vivo, mouse", "conditions": "3 mg/kg via the tail vein every 3 or 4 days, day 36 post-transplantation", "protocol": "as §2\nPrimer set for amplification of mouse Leptin gene: • sense 5'-[…]-3' (SEQ ID NO: 7), and • anti-sense 5'-GCCATCCAGGCTCTCTGG-3' (SEQ ID NO: 8)."}, "[6]": {"tested_on": "MuRF-1 gene", "assay": "quantitative PCR of MuRF-1 gene in muscle of Colon26 tumor-bearing mice, intravenous PC", "type": "in vivo, mouse", "conditions": "3 mg/kg via the tail vein every 3 or 4 days, day 36 post-transplantation", "protocol": "as §3, §4, §5, §6"}, "[7]": {"tested_on": "tumor-bearing mice (Colon26)", "assay": "muscle weight in Colon26 tumor-bearing mice, intravenous PC", "type": "in vivo", "conditions": "3 mg/kg via the tail vein every 3 or 4 days from one week after transplantation; day 36 post-transplantation", "protocol": "as §3, §4, §5, §6"}, "[8]": {"tested_on": "tumor-bearing mice (Colon26)", "assay": "weight of epididymal fat tissue in Colon26 tumor-bearing mice, intravenous PC", "type": "in vivo", "conditions": "3 mg/kg via the tail vein every 3 or 4 days; day 36 post-transplantation", "protocol": "as §2"}, "[9]": {"tested_on": "Mesenchymal OP9 cells", "assay": "in vitro differentiation induction of mesenchymal cells (OP9) into adipocytes in medium containing Colon26 culture supernatant (Oil Red O staining)", "type": "cell-based", "conditions": "Colon26 cells treated at 25 µM; 10% supernatant in adipocyte differentiation medium; OP9 observed on day 7", "protocol": "as §1\nMesenchymal OP9 cells (RIKEN cell bank) were used. The culture medium used was MEM medium (Sigma-Aldrich Japan) supplemented with 20% fetal bovine serum (Gibco), 100 units/mL penicillin G (Sigma-Aldrich Japan), 100 µg/mL streptomycin (Sigma-Aldrich Japan), and 2 mM L-glutamine.\nOP9 cells were seeded at a concentration of 7 × 10^3 cells/cm^2 in a 96-well culture plate and cultured to confluency. […]"}}}
{"compound": "CCCCCCCCCCCCCCCCCC(=O)OCC(COP(=O)([O-])OCC[N+](C)(C)C)OC(=O)CCCCCCCCCCCCCCCCC", "note": "(stereo not drawn) [18:0 PC]", "values": [{"measurement": "IL-6 levels in the culture supernatant of Colon26 cells", "setting": "[1]", "value": "direct inhibitory effect on the expression of IL-6 in cancer cells"}, {"measurement": "myotube formation", "setting": "[2]", "value": "myotube formation was observed"}]}
{"compound": "phosphatidylserine [PS]", "values": [{"measurement": "IL-6 levels in the culture supernatant of Colon26 cells", "setting": "[1]", "value": "direct inhibitory effect on the expression of IL-6 in cancer cells"}]}
{"compound": "CCCCCCCCCCCCCCCC(=O)OCC(COP(=O)([O-])OCC[N+](C)(C)C)OC(=O)CCCCCCCCCCCCCCC", "note": "(stereo not drawn) [16:0 PC, 16:0 phosphatidylcholine]", "values": [{"measurement": "IL-6 levels in the culture supernatant of Colon26 cells", "setting": "[1]", "value": "direct inhibitory effect on the expression of IL-6 in cancer cells"}, {"measurement": "myotube formation", "setting": "[2]", "value": "myotube formation was observed"}]}
{"compound": "CCCCCCCCCCCCCCCCCC(=O)OCC(O)COP(=O)([O-])OCC[N+](C)(C)C", "note": "(stereo not drawn) [18:0 LPC]", "values": [{"measurement": "myotube formation", "setting": "[2]", "value": "myotube formation was observed"}]}
{"compound": "Hydrogenated PC", "values": [{"measurement": "survival rate", "setting": "[3]", "value": "improved"}, {"measurement": "expression of the Atrogin-1 gene", "setting": "[4]", "value": "comparable to that in normal mice"}, {"measurement": "expression of the Leptin gene", "setting": "[5]", "value": "comparable to that in normal mice"}, {"measurement": "expression of the MuRF-1 gene", "setting": "[6]", "value": "comparable to that in normal mice"}, {"measurement": "weight of the gastrocnemius muscle (Gastrocnemius)", "setting": "[7]", "value": "muscle weight loss was not observed"}, {"measurement": "weight of the tibialis muscle (Tibialis)", "setting": "[7]", "value": "muscle weight loss was not observed"}, {"measurement": "weight of the epididymal fat tissue", "setting": "[8]", "value": "weight loss in the fat tissue was not observed"}]}
{"compound": "CCCCCCCCCCCCCCCC(=O)OCC(O)COP(=O)([O-])OCC[N+](C)(C)C", "note": "(stereo not drawn) [16:0 LPC, 16:0 lysophosphatidylcholine]", "values": [{"measurement": "adipocyte differentiation (Oil Red O)", "setting": "[9]", "value": "inhibition of adipocyte differentiation was prevented"}, {"measurement": "myotube formation", "setting": "[2]", "value": "myotube formation was observed"}]}
